The nature of data set [1]: Cell based assay, cytotoxicity in RT4 papilloma cells (selectivity). Also noted: species or system human. The conditions noted are these: human; RT4 cells (benign), 72 hours.
The subject of data set [2] is MBT-2: Mouse bladder transitional cell carcinoma. Put plainly: Cell based assay, cytotoxicity in MBT-2 cells. The conditions noted are these: 72 hours. On the procedure:
(§1) Commercially available bladder cancer, prostate cancer, lung cancer, breast cancer, blood cancer, pancreatic cancer, colorectal cancer, brain cancer, neuroblastoma, melanoma, liver cancer, cervical carcinoma, ovarian cancer, renal cancer, and papilloma cell lines were each treated with trypsin-EDTA and cultured, followed by being seeded in each well of a 96 well plate. After 24 hours of treatment at constant temperature, the respective cells were treated with the candidate compound so that a final concentration became 0 to 2 μM. The treated cells were additionally cultured for 72 hours, and cell viability was measured by using an ATP detection method (CellTiter-Glo® Luminescent Cell Viability Assay, Promega).

Data set [3] has as its system KU-19-19: Bladder carcinoma. Put plainly: Cell based assay, cytotoxicity in KU19-19 cells. The conditions noted are these: Homo sapiens, 72 hours. Here is the method:
as §1

In data set [4] the test system is human lung cancer cell line (NCI-H1299). Put plainly: Tumor growth inhibition in animal model using NCI-H1299. Particulars: intraperitoneally administered three times a week, NCI-H1299 animal model (FIG. 1). It counts as in vivo.

As a reminder, the IC50 is the concentration needed to halve the response being measured. The low end stands for higher potency, the high end for lower potency. `CC(=O)c1c([S+]([O-])Cc2ccc(SC(F)(F)F)cc2)[nH]c2c(Br)ccc(Cl)c2c1=O` (stereo not shown) [Compound 56, 3-acetyl-8-bromo-5-chloro-2-((4-((trifluoromethyl)thio)benzyl)sulfinyl)quinolin-4(1H)-one]: in data set [1], the IC50 at 72 h was above 10 µM. Further, the IC50 turned out to be 1.18 µM in data set [2] and 0.9 µM in data set [3]. Moreover, in data set [4], the “Effect of inhibiting tumor growth” value is reported as “effect of inhibiting tumor growth”.

(Values after patent US11464770B2, “Anticancer pharmaceutical composition” (NATIONAL CANCER CENTER, priority 2016, dated 2022).)
